This is an account of results in US8211893B2, “Protein kinase C zeta inhibition to treat diabetic retinopathy” (The Penn State Research Foundation, priority 2006, dated 2012).

Series [1] relates to bovine retinal endothelial cells (BREC). Description: In vitro permeability assay, VEGF stimulated 70 kDa RITC-dextran flux across BREC monolayer on transwell filters. Format: cell-based. The note with it: for effect on VEGF stimulated endothelial permeability to 70 kDa RITC-dextran: peptide inhibitor 50 nM. As for the experimental part:
Endothelial cells are grown to confluence on transwell filters. After the cells have grown to confluence, an additional 2 to 4 days is necessary to allow formation of a tight barrier. This may vary depending on the cell preparation.
Solute flux is measured by applying 10 micromolar or 20 micromolar RITC-dextran or FITC-BSA to the apical chamber of inserts with a confluent endothelial cell monolayer. The specific experiment may dictate when to perturb the system with, for example, a PKC inhibitor, relative to the time of measuring flux. Remember to consider the time for the perturbation to effect transport rates, for example, time for synthesis and assembly or disassembly of the junctional complex.
One half-hour after addition of fluorescent solute, 50 microliter samples are taken from the basolateral chamber. This is continued on the half-hour for up to four hours. The samples are placed into the 96 well black/clear bottom plate. A sample is taken from the apical chamber at the last time point and also placed in the 96 well plate. […] Fluorescence of each aliquot is quantified on a fluorescence plate reader. We use a FluorImager 595. A blank sample with media only but no fluorescent marker should be used for background subtraction. The rate of diffusive flux (Po) is calculated by the following formula at each time point: Po=[(FA/Δt)VA]/(FLA) where Po=diffusive flux (cm/s); FA=basolateral fluorescence; FL=apical fluorescence; Δt=change in time; A=surface area of the filter (cm^2); VA=volume of the basolateral chamber (cm^3). Note that unless the volume removed from the basolateral chamber is replaced, the volume in the basolateral chamber changes for each time point calculated. The data may be reduced as a rate over the total time course of the experiment if the change remains linear. This is done by plotting the change in fluorescence accumulated in the basolateral chamber corrected for fluorescence in the apical chamber, volume and area versus time and then determining the slope of the straight line or rate of diffusive flux, Po.
The fluorescence obtained from each time point is normalized to the fluorescence in the apical chamber. Next this ratio is corrected for the volume in the bottom chamber and this corrected ratio is plotted verses time to determine the rate of fluorescent molecule accumulation by obtaining the slope. Finally, this slope is converted from minutes to seconds and divided by the area of the filter yielding the diffusive flux in cm/s.
Bovine retinal endothelial cells (BREC) are grown to confluence on transwell filters (Costar) and treated with hydrocortisone (100 nM) to induce barrier properties. PKC zeta peptide inhibitor (50 nM, Calbiochem) is applied to the cells 30 min before addition of fluorescent-labeled tracer and VEGF (50 ng/mL, R&D Systems) is applied to the cells for 15 min before addition of tracer. RITC-labeled 70 kDa dextran (Sigma) is used as a tracer for cell permeability measures and is applied to the apical chamber at 10 micromolar. Samples are drawn from the basolateral chamber over a 4 h time course and the rate of tracer accumulation is used to determine monolayer permeability, Po, in cm/s. FIG. 2 illustrates the results of the use the myristoylated peptide inhibitor of PKC zeta on endothelial permeability to 70 kDa RITC-dextran.
Bovine retinal endothelial cells (BREC) are grown to confluence on transwell filters (Costar) and treated with hydrocortisone (100 nM) to induce barrier properties. PKC zeta peptide inhibitor (PKCζ 1) of SEQ ID No. 1 (Calbiochem) is applied to the cells at concentrations of 6.25 nM, 12.5 nM, 25 nM, and 50 nM, 30 min before addition of fluorescent-labeled tracer and VEGF (50 ng/mL, R&D Systems) is applied to the cells for 15 min before addition of tracer. […]

The target of series [2] is T1, PKC-zeta (Homo sapiens, UniProt Q05513).
T1 sequence (Q05513 1-592): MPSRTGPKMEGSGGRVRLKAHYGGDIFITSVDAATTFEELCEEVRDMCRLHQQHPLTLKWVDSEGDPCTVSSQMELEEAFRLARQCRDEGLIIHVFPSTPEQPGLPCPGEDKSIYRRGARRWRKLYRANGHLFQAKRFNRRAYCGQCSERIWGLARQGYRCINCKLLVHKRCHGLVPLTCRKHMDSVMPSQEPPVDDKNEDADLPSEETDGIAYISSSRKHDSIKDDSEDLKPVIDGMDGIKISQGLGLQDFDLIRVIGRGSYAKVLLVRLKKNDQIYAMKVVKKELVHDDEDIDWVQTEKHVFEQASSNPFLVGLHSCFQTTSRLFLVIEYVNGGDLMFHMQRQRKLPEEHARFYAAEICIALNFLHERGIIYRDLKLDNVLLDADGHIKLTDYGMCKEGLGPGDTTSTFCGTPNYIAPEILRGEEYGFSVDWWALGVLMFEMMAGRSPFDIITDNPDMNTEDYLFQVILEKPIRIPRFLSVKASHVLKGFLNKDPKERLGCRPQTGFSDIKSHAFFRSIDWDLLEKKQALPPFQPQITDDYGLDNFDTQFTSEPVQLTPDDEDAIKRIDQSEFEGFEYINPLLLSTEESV
Description: IC50 determination for PKC-zeta. Type of series: biochemical. The note with it: read-out: half-maximal inhibitory concentration, IC50, for PKC-zeta. As for the experimental part: Methods described in this example are used to determine the half-maximal inhibitory concentration, IC50, of a particular PKC zeta inhibitor. A PKC zeta inhibitor is incubated with […] in vitro by addition of the inhibitor to cultured BREC cells, followed by the addition of a labeled permeability marker, 70 kDa RITC dextran.

Series [3] has as its system retinal albumin flux after VEGF treatment. Description: In vivo VEGF induced retinal permeability, Evan's blue bound albumin flux. The note with it: rat, intraocular injection with VEGF 50 ng, 5 h. The source says:
Vascular permeability is quantified in this in vivo model by measuring albumin leakage form blood vessels into the retina. Evans blue is an acid dye of the diazo group that noncovalently binds to albumin in the blood, allowing the breakdown in blood-retinal barrier to be detected when increased vessel leakage is extravasated into the interstitial space.
Rats are used in this example and each animal is weighed and the body weight (BW) recorded for anaesthetic and dye injections. Each animal is anesthetized by intramuscular injection of 1 microliter/g BW a Ketamine/Xylazine mixture equal to […]/6.67 mg Xylazine/kg BW. […]
Both eyes are enucleated and bisected at the equator to harvest the retinas which are optionally dried thoroughly in a Speed-Vac for 5 hours. The weight of the retinas is measured with an analytical balance. […]
The obtained plasma samples are diluted 1:10000 with formamide. […] The absorbance in each well is measured at 620 and 740 nm with a plate reader. The background-subtracted absorbance (A620-A740) is calculated for each sample and the dye concentration is determined using the standard curve. […]
The PKC-zeta I1 is effective at reducing retinal albumin flux in vivo after VEGF treatment. […] Flux to albumin is measured using the albumin binding dye Evan's blue. […] Evan's blue is eluted from the retinas in formamide and read spectrophotometrically. […]

Series [4] deals with BREC cultures. Description: Invitrogen Live/Dead assay, calcein AM and ethidium homodimer-1. Type of series: cell-based. The note with it: 10 micromolar, 24 h, confluent BREC, alone or with VEGF; listed as PKC-zeta I1. As for the experimental part:
Cell viability is measured using the Invitrogen Live/Dead assay according to manufacturer's instructions. Confluent BREC cultures are treated with 10 micromolar PKC-zeta I1 for 24 h. Cell viability is measured with calcein AM incorporation and cell death is measured by ethidium homodimer-1 staining followed by fluorescence quantification on a Molecular Devices Gemini fluorescence plate reader.

In series [5] the target is T1, PKC-zeta. The series can be described thus: In vitro screen for PKC zeta inhibitors, Kinase-Glo Luminescent Kinase assay with CREBtide substrate. Format: biochemical. The note with it: tested at 100 micromolar; relative to compound of formula (I). Details: purchased Biomol International SE-413. As for the experimental part: A screen for PKCzeta inhibitors was developed using recombinant human enzyme from Biomol International (SE-413) and CREBtide (Biomol P195) as the substrate. PKCzeta is incubated for 8 min at 30° C. in 50 microliters of buffer containing 5 mM MgCl2, 100 micromolar Na3VO4, 100 micromolar NaP2O7, 1 mM NaF. 100 micromolar PMSF, 50 mM Tris (pH 7.5), 4 micrograms of phosphatidylserine, 50 micromolar ATP, and a substrate peptide, KRREILSRRPSYR. The substrate peptide may be chemically synthesized, recombinantly produced or obtained commercially by the trade name CREBtide. Approximately 9,000 compounds from the DIVERSet collection of the ChemBridge Corporation (San Diego, Calif.) were tested at a final concentration of 100 micromolar, using the Kinase-Glo™ Luminescent Kinase assay (Promega) to measure residual ATP levels after the kinase reaction as described by the manufacturer. Compounds are identified as having inhibitory activity when they reduce PCK zeta activity by at least 50% when tested at a concentration of 100 micromolar.

pIC50: −log10 of the molar value. Entries after “also recorded” stand apart in the source; their conditions may differ. No end group written: not given here. *: point of attachment. Myristoyl = CCCCCCCCCCCCCC(=O)*

In the case of `CN(C)CCCn1cc(C2=C(c3c[nH]c4ccccc34)C(=O)NC2=O)c2ccccc21` [bisindoylmaleimide I], in series [1] (bisindoylmaleimide I 5 micromolar, 30 min before tracer, VEGF 50 ng/mL, BREC), the “effect on VEGF stimulated dextran permeability” value is “partly reduces VEGF stimulated permeability”.
In the case of `CCOC(=O)c1c(NC(C)=O)sc(/C(C)=N/O)c1-c1ccccc1` [formula (I), ethyl (5E)-2-acetylimino-5-[1-(hydroxyamino)ethylidene]-4-phenyl-thiophene-3-carboxylate], the pIC50 in series [2] is 5.00. In addition, the “effect on VEGF induced endothelial permeability in vitro” value in series [1] (PKC-zeta I1 at 10 and 25 micromolar, 30 min before tracer, VEGF 50 ng/mL) is recorded as “completely blocks VEGF induced endothelial permeability; also recorded: effectively blocks VEGF induced permeability in vitro”. In addition, in series [1] (PKC-zeta I1 at 10 and 25 micromolar, no VEGF), the “effect on baseline endothelial permeability” value is reported as “reduces baseline permeability”. Moreover, the “reduction of Evan's blue bound albumin flux” value in series [3] (about 10 micromolar final concentration in the eye) came out at 50%. Besides, in series [3] (about 10 micromolar in the eye), the “effect on VEGF induced permeability in vivo” value is “blocks VEGF induced permeability in vivo”. Further, in series [4], the “cell death (ethidium homodimer-1 staining)” value is reported as “no increase in cell death; also recorded: does not alter cell viability or increase cell death” and the “cell viability (calcein AM incorporation)” value is “no loss of cell viability; also recorded: does not alter cell viability”.
In the case of `CCOC(=O)c1c(NC(=S)N2CCN(S(C)(=O)=O)CC2)sc(C)c1-c1ccccc1` [formula (III)], the “inhibits PKC zeta with x-fold greater efficacy than the compound of formula (I)” value in series [5] is reported as 1.2 fold.
As to `CC(C)OC(=O)c1c(-c2ccc(Cl)c(Cl)c2)csc1N` [formula (IV)], the “inhibits PKC zeta with x-fold greater efficacy than the compound of formula (I)” value in series [5] is recorded as 1.8 fold.
Turning to `CCOC(=O)c1c(NC(C)=O)sc(C)c1-c1ccc(OC)cc1` [formula (V)], the “inhibits PKC zeta with x-fold greater efficacy than the compound of formula (I)” value in series [5] is given as 2.6 fold.
For “myr-SIYRRGARRWRKL (Myristoyl-SIYRRGARRWRKL)”, the “effect on VEGF stimulated endothelial permeability to 70 kDa RITC-dextran” value in series [1] (30 min before tracer, VEGF 50 ng/mL, BREC) is “reduces and prevents a VEGF stimulated increase in permeability”; in series [1] (30 min before tracer, VEGF 50 ng/mL, BREC, listed as myristoylated peptide inhibitor of PKC zeta) it was “reduced or prevented permeability”. Besides, the “dose dependence of effect on VEGF stimulated endothelial permeability” value in series [1] (peptide inhibitor 6.25, 12.5, 25 and 50 nM, VEGF 50 ng/mL, BREC) is on record as “reduces VEGF stimulated endothelial permeability in a dose dependent manner”.
